The source of these data is ChEMBL document CHEMBL1201862, “PubChem BioAssay data set” (2004).

What is called AC50 is the concentration giving half of the maximal activity seen.

Calls of active or inactive are those of the source.

The target in one experiment is Large T antigen (Simian virus 40, UniProt P03070). The experiment is classed as functional, Betapolyomavirus macacae.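 Further: Confirmatory-stage PubChem screen for compounds that inhibit SV40 T antigen.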
For experiment [1], the target named is T1, High affinity choline transporter 1 (Homo sapiens, UniProt Q9GZV3).
T1 sequence (Q9GZV3 whole entry): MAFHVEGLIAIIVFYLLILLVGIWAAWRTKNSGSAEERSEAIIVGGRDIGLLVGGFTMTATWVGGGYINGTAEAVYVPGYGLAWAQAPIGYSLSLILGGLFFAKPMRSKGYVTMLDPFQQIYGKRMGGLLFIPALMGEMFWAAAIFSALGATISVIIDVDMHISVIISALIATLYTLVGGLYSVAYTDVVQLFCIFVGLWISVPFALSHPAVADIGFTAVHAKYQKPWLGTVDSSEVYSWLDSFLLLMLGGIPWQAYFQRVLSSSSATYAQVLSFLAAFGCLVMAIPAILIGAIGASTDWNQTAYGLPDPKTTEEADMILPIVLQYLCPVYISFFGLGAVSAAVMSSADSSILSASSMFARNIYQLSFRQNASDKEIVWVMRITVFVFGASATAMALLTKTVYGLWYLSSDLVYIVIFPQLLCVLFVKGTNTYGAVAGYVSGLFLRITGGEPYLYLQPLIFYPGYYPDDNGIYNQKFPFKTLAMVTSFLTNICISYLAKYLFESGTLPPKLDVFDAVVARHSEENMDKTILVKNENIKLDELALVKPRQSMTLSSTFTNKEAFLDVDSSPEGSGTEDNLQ
Kind of experiment: human choline transporter blockers, potency – cell-based, 5-point CRC, membrane potential dye, dose response (AID 504840). Format: functional.

Experiment [2] addresses T2, Fatty acid synthase (Homo sapiens, UniProt P49327). Description: inhibition of human FAS-TE enzyme activity – biochemical, kinetic fluorescence intensity, dose response (AID 624326).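 Further: rate of fluorescence rise from hydrolysis of a fluorogenic O-methyl fluorescein ester substrate.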 Format: functional.
Experiment [3] concerns the target T2, Fatty acid synthase. Kind of experiment: inhibition of human FAS-TE enzyme activity – biochemical, endpoint fluorescence intensity, uHTS hits, dose response (AID 624327).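 Further: fluorescence from hydrolysis of an O-methyl fluorescein acyl ester substrate by the enzyme.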 The experiment is classed as functional.
The subject of a further experiment is Streptococcus. Kind of experiment: GAS UMAA2166 growth inhibition – luminescence, BacTiterGlo, counter-screen for streptokinase expression inhibitor project, dose response (AID 1915).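 Further: potency for reduction of bacterial viability or growth.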 The experiment is classed as functional, organism-based. A general note: The purpose of a counterscreen is to sort out artefacts and off-target activity.
The next experiment deals with T3, Cytochrome P450 1A2 (Homo sapiens, UniProt P05177).
T3 sequence (P05177 whole entry): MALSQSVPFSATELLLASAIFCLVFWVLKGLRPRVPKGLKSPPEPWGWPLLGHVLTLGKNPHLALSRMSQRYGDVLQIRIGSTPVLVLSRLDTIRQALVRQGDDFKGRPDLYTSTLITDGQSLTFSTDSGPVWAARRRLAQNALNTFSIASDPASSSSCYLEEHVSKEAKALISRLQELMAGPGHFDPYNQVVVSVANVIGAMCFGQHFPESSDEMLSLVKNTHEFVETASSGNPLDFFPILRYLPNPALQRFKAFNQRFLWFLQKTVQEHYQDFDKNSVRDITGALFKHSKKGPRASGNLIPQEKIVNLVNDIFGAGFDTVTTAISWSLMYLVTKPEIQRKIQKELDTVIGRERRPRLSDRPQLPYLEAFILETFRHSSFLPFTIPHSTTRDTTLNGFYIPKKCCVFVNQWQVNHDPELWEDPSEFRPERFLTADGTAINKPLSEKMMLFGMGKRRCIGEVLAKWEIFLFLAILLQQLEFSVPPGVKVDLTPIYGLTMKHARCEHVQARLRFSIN

The target in another experiment is Cytochrome P450 3A4 (Homo sapiens, UniProt P08684).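 Further: CYP3A4 tested as one member of a cytochrome P450 panel screen.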
The target of a further experiment is T4, Streptokinase A (Streptococcus pyogenes serotype M1, UniProt P10520).
T4 sequence (P10520 whole entry): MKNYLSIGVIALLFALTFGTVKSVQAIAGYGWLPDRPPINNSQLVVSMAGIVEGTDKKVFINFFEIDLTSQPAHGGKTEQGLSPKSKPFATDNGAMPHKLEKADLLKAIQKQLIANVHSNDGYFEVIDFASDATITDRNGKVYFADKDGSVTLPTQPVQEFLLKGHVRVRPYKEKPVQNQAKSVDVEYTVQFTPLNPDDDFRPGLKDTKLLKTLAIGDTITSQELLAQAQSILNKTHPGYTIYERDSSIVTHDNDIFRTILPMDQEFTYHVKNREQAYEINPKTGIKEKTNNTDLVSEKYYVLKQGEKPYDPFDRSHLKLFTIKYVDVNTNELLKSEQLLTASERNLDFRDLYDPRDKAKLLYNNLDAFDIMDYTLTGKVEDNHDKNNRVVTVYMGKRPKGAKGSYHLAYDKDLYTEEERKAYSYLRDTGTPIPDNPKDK
Kind of experiment: viability-normalized secreted streptokinase activity reduction – plasminogen activation absorbance, OD405, dose response (AID 1914).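 Further: secreted streptokinase activity via plasminogen activation per viability signal from cell pellet.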 Format: functional, Streptococcus pyogenes M1 GAS.

Experiment [4] has as its system Streptococcus sp. 'group A'. Kind of experiment: Streptococcus pyogenes SK(-)GAS viability under kanamycin – luminescence, BacTiterGlo, confirmation, counter-screen for streptokinase expression inhibitor project, dose response (AID 1900). The experiment is classed as functional, organism-based.
For experiment [5], the target named is T5, Corticotropin-releasing factor receptor 2/Corticotropin-releasing factor-binding protein (Homo sapiens, UniProt P24387+Q13324).
T5 sequence (Q13324 whole entry): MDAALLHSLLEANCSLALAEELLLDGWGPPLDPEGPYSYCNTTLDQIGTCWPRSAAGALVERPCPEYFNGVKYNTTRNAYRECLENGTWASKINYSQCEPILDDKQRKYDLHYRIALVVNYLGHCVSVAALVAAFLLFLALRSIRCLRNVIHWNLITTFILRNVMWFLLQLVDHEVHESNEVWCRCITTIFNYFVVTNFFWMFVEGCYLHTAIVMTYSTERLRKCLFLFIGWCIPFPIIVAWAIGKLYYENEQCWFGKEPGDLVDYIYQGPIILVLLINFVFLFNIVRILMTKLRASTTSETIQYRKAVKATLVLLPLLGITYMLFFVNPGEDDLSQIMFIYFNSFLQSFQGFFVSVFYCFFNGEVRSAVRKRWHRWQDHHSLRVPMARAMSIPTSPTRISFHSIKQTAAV
T5 sequence (P24387 whole entry): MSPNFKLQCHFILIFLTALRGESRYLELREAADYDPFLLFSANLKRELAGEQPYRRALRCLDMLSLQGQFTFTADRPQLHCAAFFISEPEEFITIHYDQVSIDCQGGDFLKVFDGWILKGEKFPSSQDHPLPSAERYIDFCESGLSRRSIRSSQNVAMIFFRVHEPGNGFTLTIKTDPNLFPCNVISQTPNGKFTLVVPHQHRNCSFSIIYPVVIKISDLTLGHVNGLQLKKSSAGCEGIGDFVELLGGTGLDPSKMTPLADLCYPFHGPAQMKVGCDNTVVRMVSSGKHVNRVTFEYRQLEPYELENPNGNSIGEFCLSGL
Description: activators of CRF receptor 2 with binding protein – uHTS hits, confirmation (AID 602473). The experiment is classed as functional. The conditions noted are these: read-out: EC50_Mean.

The target in experiment [6] is T5, Corticotropin-releasing factor receptor 2/Corticotropin-releasing factor-binding protein. Kind of experiment: Dose Response confirmation of uHTS hits for small molecule antagonists of the CRF-binding protein and CRF-R2 receptor complex. Format: functional. The conditions noted are these: read-out: IC50_Mean.
The target of another experiment is Paired box protein Pax-8 (Homo sapiens, UniProt Q06710). Description: PAX8 transcriptional activity inhibition in RMG-I – RMG-I cells, luciferase, cherry-pick, dose response (AID 687027).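 Further: luciferase reporter driven by Pax8 target thyroperoxidase promoter measured by SteadyGlo luminescence.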 Format: functional, cell-based.
Sequence of Paired box protein Pax-8 (Q06710 whole entry): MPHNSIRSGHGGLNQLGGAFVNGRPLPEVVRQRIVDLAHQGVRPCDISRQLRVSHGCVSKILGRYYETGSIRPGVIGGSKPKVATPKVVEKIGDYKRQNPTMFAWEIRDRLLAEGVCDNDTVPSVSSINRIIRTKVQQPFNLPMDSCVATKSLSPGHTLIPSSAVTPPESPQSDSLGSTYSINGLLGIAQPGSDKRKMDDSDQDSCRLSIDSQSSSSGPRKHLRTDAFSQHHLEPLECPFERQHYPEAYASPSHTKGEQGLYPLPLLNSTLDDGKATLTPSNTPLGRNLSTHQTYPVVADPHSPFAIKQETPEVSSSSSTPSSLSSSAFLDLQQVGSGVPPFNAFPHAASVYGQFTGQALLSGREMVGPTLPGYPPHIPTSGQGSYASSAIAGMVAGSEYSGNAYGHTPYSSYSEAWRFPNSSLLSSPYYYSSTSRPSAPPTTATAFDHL

T2 sequence (P49327 whole entry): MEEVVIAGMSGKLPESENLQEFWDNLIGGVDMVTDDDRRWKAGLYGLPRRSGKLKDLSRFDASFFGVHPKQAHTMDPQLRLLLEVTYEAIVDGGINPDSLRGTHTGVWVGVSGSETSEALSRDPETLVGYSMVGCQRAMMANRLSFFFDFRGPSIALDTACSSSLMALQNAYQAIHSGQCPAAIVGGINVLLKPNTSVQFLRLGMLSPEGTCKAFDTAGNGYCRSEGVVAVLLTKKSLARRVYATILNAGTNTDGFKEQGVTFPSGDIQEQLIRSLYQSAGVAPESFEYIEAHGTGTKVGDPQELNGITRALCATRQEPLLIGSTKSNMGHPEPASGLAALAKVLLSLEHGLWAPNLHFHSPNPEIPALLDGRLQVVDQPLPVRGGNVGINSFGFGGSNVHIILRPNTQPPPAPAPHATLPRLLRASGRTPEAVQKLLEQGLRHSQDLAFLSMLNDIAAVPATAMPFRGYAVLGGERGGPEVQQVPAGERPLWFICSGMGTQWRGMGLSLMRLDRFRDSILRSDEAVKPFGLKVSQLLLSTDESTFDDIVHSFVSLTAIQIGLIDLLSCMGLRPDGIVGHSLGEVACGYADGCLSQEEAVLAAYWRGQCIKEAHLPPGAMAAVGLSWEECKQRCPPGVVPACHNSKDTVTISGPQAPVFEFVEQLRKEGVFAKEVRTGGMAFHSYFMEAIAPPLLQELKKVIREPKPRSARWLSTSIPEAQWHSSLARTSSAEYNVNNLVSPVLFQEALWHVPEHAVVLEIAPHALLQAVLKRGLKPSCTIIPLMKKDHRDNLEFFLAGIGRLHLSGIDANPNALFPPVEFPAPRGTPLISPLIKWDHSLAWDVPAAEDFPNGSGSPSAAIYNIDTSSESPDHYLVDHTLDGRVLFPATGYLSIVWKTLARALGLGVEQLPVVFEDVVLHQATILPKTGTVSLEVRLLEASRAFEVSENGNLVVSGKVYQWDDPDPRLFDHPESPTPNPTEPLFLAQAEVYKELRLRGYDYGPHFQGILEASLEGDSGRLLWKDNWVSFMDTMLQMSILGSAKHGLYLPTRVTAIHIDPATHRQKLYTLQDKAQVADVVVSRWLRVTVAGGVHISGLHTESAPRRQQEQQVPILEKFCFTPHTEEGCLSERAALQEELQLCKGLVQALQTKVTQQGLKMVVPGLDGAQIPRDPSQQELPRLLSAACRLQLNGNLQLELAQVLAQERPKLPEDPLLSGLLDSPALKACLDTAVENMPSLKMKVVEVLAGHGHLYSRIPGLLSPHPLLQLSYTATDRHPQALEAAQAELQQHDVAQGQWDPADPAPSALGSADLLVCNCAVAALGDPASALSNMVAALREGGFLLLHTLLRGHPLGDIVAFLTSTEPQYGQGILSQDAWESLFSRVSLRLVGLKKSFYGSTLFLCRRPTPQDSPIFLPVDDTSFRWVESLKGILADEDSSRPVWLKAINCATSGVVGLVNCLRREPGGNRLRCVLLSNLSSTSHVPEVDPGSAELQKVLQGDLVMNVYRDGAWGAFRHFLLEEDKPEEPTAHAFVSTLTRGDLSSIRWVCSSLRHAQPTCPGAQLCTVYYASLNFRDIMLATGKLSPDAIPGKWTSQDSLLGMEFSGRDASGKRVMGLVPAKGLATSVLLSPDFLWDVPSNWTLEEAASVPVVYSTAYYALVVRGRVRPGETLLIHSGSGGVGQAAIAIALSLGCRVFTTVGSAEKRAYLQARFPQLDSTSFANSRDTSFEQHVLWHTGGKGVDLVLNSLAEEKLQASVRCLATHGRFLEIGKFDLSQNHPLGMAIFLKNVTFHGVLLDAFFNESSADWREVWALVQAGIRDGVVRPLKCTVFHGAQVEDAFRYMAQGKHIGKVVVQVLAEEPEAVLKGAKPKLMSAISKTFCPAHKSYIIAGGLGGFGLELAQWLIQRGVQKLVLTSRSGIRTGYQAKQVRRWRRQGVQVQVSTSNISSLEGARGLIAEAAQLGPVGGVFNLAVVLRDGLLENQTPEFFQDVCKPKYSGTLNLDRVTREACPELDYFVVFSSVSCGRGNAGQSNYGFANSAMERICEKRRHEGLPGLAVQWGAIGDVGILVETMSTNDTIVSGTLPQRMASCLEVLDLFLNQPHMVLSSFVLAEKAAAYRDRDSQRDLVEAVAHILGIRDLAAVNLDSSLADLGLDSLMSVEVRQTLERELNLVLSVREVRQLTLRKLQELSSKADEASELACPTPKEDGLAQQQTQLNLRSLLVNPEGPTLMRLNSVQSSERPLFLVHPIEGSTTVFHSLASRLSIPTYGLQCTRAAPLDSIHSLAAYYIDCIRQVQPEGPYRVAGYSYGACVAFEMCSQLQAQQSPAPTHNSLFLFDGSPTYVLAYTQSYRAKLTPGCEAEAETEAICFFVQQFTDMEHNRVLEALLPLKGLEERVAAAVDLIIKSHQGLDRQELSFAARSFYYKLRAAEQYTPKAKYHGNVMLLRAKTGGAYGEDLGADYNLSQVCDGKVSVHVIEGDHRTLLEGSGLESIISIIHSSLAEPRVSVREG
Sequence of Large T antigen (P03070 whole entry): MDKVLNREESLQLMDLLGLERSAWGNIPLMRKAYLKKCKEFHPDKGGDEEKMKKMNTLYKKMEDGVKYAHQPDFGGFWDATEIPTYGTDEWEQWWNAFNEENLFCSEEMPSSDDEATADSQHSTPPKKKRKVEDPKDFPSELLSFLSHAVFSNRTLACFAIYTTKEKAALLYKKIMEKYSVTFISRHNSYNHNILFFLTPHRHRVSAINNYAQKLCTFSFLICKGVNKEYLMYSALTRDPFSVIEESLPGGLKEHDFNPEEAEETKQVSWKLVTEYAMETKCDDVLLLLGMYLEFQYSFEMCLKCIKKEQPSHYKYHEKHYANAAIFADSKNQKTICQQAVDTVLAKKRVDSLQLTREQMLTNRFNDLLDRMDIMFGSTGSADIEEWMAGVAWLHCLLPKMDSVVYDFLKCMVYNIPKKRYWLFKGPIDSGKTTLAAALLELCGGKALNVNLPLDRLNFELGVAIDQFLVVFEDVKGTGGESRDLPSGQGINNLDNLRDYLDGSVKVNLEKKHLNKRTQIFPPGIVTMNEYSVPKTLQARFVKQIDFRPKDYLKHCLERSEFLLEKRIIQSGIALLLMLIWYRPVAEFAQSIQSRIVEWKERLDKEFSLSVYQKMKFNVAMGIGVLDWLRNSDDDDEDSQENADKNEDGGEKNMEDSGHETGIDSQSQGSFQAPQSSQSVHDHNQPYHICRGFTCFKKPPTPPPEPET
Sequence of Cytochrome P450 3A4 (P08684 whole entry): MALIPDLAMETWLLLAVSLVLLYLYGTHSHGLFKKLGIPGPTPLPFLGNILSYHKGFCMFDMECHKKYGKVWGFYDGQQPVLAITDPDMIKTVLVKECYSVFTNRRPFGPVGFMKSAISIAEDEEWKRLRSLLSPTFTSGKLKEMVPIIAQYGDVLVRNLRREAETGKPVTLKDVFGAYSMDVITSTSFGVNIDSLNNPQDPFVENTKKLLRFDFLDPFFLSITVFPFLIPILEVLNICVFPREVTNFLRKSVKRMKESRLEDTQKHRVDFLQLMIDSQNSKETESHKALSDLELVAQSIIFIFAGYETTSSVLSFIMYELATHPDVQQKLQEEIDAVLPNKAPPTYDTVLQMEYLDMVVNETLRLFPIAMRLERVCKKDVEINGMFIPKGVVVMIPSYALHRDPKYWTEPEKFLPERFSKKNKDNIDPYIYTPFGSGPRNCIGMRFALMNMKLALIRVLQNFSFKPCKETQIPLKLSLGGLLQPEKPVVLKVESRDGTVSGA

For the molecule `COc1cc(CNc2ccc(N3CCCCC3)cc2)ccc1OCC(=O)NC(C)(C)C`, the IC50 on Large T antigen is 12.5 µM (active); in experiment [1], 6.55 µM (active).
For the molecule `COc1cc(N(C)C)c([N+](=O)[O-])cc1C(=O)NC(C)CNc1ccc([N+](=O)[O-])cc1Cl` (configuration not stated), the results for the IC50 on Fatty acid synthase [2] and on Fatty acid synthase [3] were 5.79 µM (active) and 6.26 µM (active), respectively.
`CSCC[C@H](NC(=O)c1nn(C)c(=O)c2ccccc12)c1nc2ccccc2[nH]1`: the EC50 was 19.8 µM (active) in the experiment on Streptococcus, > 150 µM (not active) on Streptokinase A and 1.06 µM (active) in experiment [4]. For the same molecule, the values for the AC50 on Cytochrome P450 1A2 and at Cytochrome P450 3A4 were 17.8 µM (inconclusive) and 12.6 µM (inconclusive), respectively.
With `O=C(COc1cccc(Oc2ccccc2)c1)Nc1ccc(SC(F)F)cc1`, the EC50 in the experiment on Streptococcus is > 150 µM (not active); at Streptokinase A it was 17.5 µM (active); in [4], 14.4 µM (active). Besides, the IC50 is 2.43 µM (active) on Fatty acid synthase [2] and 4.12 µM (active) on Fatty acid synthase [3].
For `CN1CC(=O)N(CC(=O)N2CCC(Cc3ccccc3)CC2)C1=O`, in [5], the EC50 was > 53 µM (inactive). Besides, the IC50 in [6] was > 47.1 µM (inactive).
`CSCC[C@H](NC(=O)c1ccc(Cl)c([N+](=O)[O-])c1)c1nc2ccccc2[nH]1`: the IC50 was 6.14 µM (active) on Fatty acid synthase [2] and 11.1 µM (active) at Fatty acid synthase [3].
As to `CC(C)C(=O)c1ccc(O)c(O)c1`, the IC50 on Large T antigen is 30.9 µM (active).
For the molecule `Cc1ccc(S(=O)(=O)N(C)C[C@@H]2Oc3c(NC(=O)c4ccc(-c5nccs5)cc4)cccc3C(=O)N([C@@H](C)CO)C[C@@H]2C)cc1`, the AC50 at Paired box protein Pax-8 was 18.3 µM (active).
Same read-out and setting: for `C[C@@H]1CN([C@@H](C)CO)C(=O)Cc2cc(NC(=O)CCC(F)(F)F)ccc2O[C@H]1CN(C)Cc1ccc(-c2ccccc2)cc1` the value was 8.61 µM (active).
In the case of `CCOC(=O)c1ccc(NC(=O)CN2C(=O)CSC2=O)cc1`, the EC50 in experiment [5] was > 53 µM (inactive). In experiment [6], the IC50 is > 47.1 µM (inactive).
In the case of `CCCC(=O)NC(C)c1nc2ccccc2[nH]1` (configuration not stated), the EC50 in [5] is > 53 µM (inactive). Also, the IC50 in experiment [6] is > 47.1 µM (inactive).
As for `CC(=NNc1cc(C)c2ccccc2n1)c1ccccn1`, the AC50 at Paired box protein Pax-8 was 7.4 µM (active).
Consider `O=C1NC(=S)S/C1=C/c1ccc(N2CCOCC2)o1`, for which the IC50 on Large T antigen is 18.4 µM (active).
For the molecule `O=C(Nc1cccc([N+](=O)[O-])c1)NC1CCCCCCC1`, the IC50 at Fatty acid synthase [2] is 15.2 µM (active); on Fatty acid synthase [3], 14.8 µM (active).
For the molecule `CC(C)c1ccc(CSc2ccc(S(=O)(=O)N3CCOCC3)cn2)cc1`, the IC50 at Fatty acid synthase [2] is 7.91 µM (active); at Fatty acid synthase [3], 5.98 µM (active).
On to `COc1ccc(N2CCN(C(=O)c3cc(C)oc3C)CC2)cc1`, for which the EC50 (in the experiment on Streptococcus; at Streptokinase A; in experiment [4]) was > 150 µM (not active) each time.
Consider `CC1CN(Cc2nc3c(c(=O)[nH]c(=O)n3C)n2CCCc2ccccc2)CC(C)O1` (configuration not stated), for which the EC50 (in the experiment on Streptococcus; on Streptokinase A; in experiment [4]) was > 150 µM (not active) throughout.
Take `Cc1cc(C)n(CCC(=O)N=Nc2c(O)[nH]c3ccc(Br)cc23)n1`: the EC50 in experiment [5] was > 53 µM (inactive). The IC50 in experiment [6] is > 47.1 µM (inactive).
Regarding `CCn1c(SCC(=O)Nc2ccc(N(C)C)cc2)nnc1C1CC1`, the IC50 on Large T antigen is 9.49 µM (active).
For the molecule `Cc1cccc2c(CCNC(=O)c3ccc([N+](=O)[O-])cc3)c[nH]c12`, in experiment [5], the EC50 is > 53 µM (inactive). Also, the IC50 in experiment [6] is > 47.1 µM (inactive).
`COc1cc(OC)cc(C(=O)Nc2nc(CC(=O)NCc3ccccc3OC)cs2)c1`: the EC50 (in the experiment on Streptococcus; on Streptokinase A; in experiment [4]) was > 150 µM (not active) in each case.
`CCc1ccc(C(=O)COC(=O)c2cc([N+](=O)[O-])ccc2N2CCOCC2)cc1`: the figures for the IC50 at Fatty acid synthase [2] and at Fatty acid synthase [3] were 2.16 µM (active) and 1.75 µM (active), respectively.
In the case of `CCOc1ccc(CCNC(=O)c2cccc(NC3=NC4CS(=O)(=O)CC4S3)c2)cc1OCC` (configuration not stated), in experiment [5], the EC50 was > 53 µM (inactive). The IC50 in [6] was > 47.1 µM (inactive).
`C=CCN=C(S)Nc1ccc(N(C)C)cc1`: the IC50 at Large T antigen is 3.24 µM (active).
Consider `COc1ccc(S(=O)(=O)Nc2nc3ccccc3nc2NCc2ccc3c(c2)OCO3)cc1`, for which the EC50 in [5] was > 53 µM (inactive). Moreover, the IC50 in experiment [6] was > 47.1 µM (inactive).
